Measurements taken from PMC3926802 (Molecular pharmaceutics, 2012).
“And” between values parts separate entries of the source, which are not always exact repeats. Equal values may be shown once. Read-outs that look alike come from different tables or passages of the source.

Tests used:
[1] = Thermodynamic solubility in water for injection; type: physicochemical; conditions: for Solubility: water for injection (pH 6.4), 37 °C, 6 hours
[2] = Buffer; type: physicochemical; conditions: buffer (pH 7.4), 37°C, 24 hours
[3] = In vivo tissue distribution and bioconversion after topical eye drop; set-up: species or system pigmented rabbits
[4] = Log D; conditions: n-octanol and PBS buffer (pH 7.4), 37 °C; mean ± SD, n = 3
[5] = In vitro transport across SCRPE; conditions: for Cumulative % transport compared with GFX, SCRPE / Fold improvement in permeability compared to GFX, SCRPE: 200 μM donor; for Cumulative % transport compared with GFX, SCRPE: no inhibitor; for Fold improvement in permeability compared to GFX, SCRPE: pH 7.4, 37 °C; for GFX levels formed in the prodrug group, SCRPE: during in vitro transport study
[6] = In vitro transport across cornea; conditions: for Cumulative % transport compared with GFX, cornea / Fold improvement in permeability compared to GFX, cornea: 200 μM donor; for Cumulative % transport compared with GFX, cornea: no inhibitor; for Fold improvement in permeability compared to GFX, cornea: pH 7.4, 37 °C; for GFX levels formed in the prodrug group, cornea: during in vitro transport study
[7] = In vitro transport across conjunctiva; conditions: for Cumulative % transport compared with GFX, conjunctiva / Fold improvement in permeability compared to GFX, conjunctiva: 200 μM donor; for Cumulative % transport compared with GFX, conjunctiva: no inhibitor; for Fold improvement in permeability compared to GFX, conjunctiva: pH 7.4, 37 °C; for GFX levels formed in the prodrug group, conjunctiva: during in vitro transport study
[8] = cited from earlier work
[9] = cited from earlier work; remark: listed apart in the source
[10] = 1 hour after topical dose of DMAP-GFX
[11] = MPP+ (500 μM), OCT inhibitor, versus no inhibitor
[12] = absence of OCT inhibitor MPP+, printed as compared to GFX
[13] = α-methyl-DL-tryptophan, ATB (0, +) inhibitor, versus no inhibitor
[14] = topical eye drop dosing in rabbits

| Compound | Solubility ([1]; mean ± SD, n = 3) [µg/mL] | GFX formed from prodrug [2] [%] | Solubility [1] [mM] | Log D (pH 7.4) [4] | Cumulative % transport compared with GFX, SCRPE [5] | Fold improvement in permeability compared to GFX, SCRPE [5] | GFX levels formed in the prodrug group, SCRPE [5] | Cumulative % transport compared with GFX, cornea [6] | Fold improvement in permeability compared to GFX, cornea [6] | GFX levels formed in the prodrug group, cornea [6] | Cumulative % transport compared with GFX, conjunctiva [7] | Fold improvement in permeability compared to GFX, conjunctiva [7] | GFX levels formed in the prodrug group, conjunctiva [7] | also measured |
| --- | --- | --- | --- | --- | --- | --- | --- | --- | --- | --- | --- | --- | --- | --- |
| COc1c(N2CCNC(C)C2)c(F)cc2c(=O)c(C(=O)NCCCC(=O)O)cn(C3CC3)c12 (racemic) [CP-GFX, (±)-4-(1-cyclopropyl-6-fluoro-8-methoxy-7-(3-methylpiperazin-1-yl)-4-oxo-1,4-dihydroquinoline-3-carboxamido)butanoic acid] | 3010 ± 200 | 8.63 |  |  |  |  |  |  |  |  |  |  |  | Log D (pH 7.4): 0.11 ± 0.01 |
| COc1c(N2CCNC(C)C2)c(F)cc2c(=O)c(C(=O)NCCCN(C)C)cn(C3CC3)c12 (racemic) [DMAP-GFX, (±)-1-cyclopropyl-N-(3-(dimethylamino)propyl)-6-fluoro-8-methoxy-7-(3-methylpiperazin-1-yl)-4-oxo-1,4-dihydroquinoline-3-carboxamide] | 33260 ± 3000 | 9.51 | 72 | 0.05 ± 0.01 | significantly higher than GFX | 1.9 fold and 1.95 fold | below the detection limits | significantly higher than GFX | 1.4 fold and 1.42 fold | below the detection limits | significantly higher than GFX | 1.8 fold and 1.85 fold | below the detection limits | Fold higher solubility than CP-GFX ([1]; compared to CP-GFX (6.0 mM)): 12 fold; Fold greater solubility than GFX ([1]; compared to GFX): 12.8 fold; Formed drug (GFX) levels as % of the total drug, CRPE [3, 10]: 13%; Formed drug (GFX) levels as % of the total drug, conjunctiva [3, 10]: 70%; Formed drug (GFX) levels as % of the total drug, cornea [3, 10]: 8%; Formed drug (GFX) levels as % of the total drug, iris-ciliary body [3, 10]: 24%; Formed drug (GFX) levels as % of the total drug, retina [3, 10]: 55%; Formed drug (GFX) levels as % of the total drug, sclera [3, 10]: 29%; Formed drug (GFX) levels as % of the total drug, vitreous humor [3, 10]: 60%; Drug levels in the remaining tissues, prodrug versus drug group ([3]; 1 hour after topical eye drop, tissues other than vitreous humor and CRPE): not significantly different; Cumulative % transport in the presence of MPP+, SCRPE [5, 11]: significantly lower; Permeability in the absence of inhibitor, fold higher, SCRPE [5, 12]: 2.06 fold; Cumulative % transport in the presence of MPP+, cornea [6, 11]: significantly lower; Permeability in the absence of inhibitor, fold higher, cornea [6, 12]: 1.42 fold; Cumulative % transport in the presence of MPP+, conjunctiva [7, 11]: significantly lower |
| COc1c(N2CCN(C(=O)[C@@H](N)CC(C)C)C(C)C2)c(F)cc2c(=O)c(C(=O)O)cn(C3CC3)c12 (some centres unmarked) [APM-GFX] | 2160 ± 300 | 8.97 | 4 | 1.04 ± 0.02 | did not show any improvement | did not show any improvement | below the detection limits | did not show any improvement | did not show any improvement | below the detection limits | did not show any improvement | did not show any improvement | below the detection limits | Transport in the presence of α-methyl-DL-tryptophan, SCRPE [5, 13]: did not show any change; Transport in the presence of α-methyl-DL-tryptophan, cornea [6, 13]: did not show any change; Transport in the presence of α-methyl-DL-tryptophan, conjunctiva [7, 13]: did not show any change |
| COc1c(N2CCNC(C)C2)c(F)cc2c(=O)c(C(=O)O)cn(C3CC3)c12 (centres unmarked) [GFX, Gatifloxacin sesquihydrate] |  |  |  |  |  |  |  |  |  |  |  |  |  | solubility at 6 h ([1]; water for injection, pH 6.4): 2600 µg/mL and 7000 µM; pKa, carboxylic acid (reported) [8]: 5.94; Tmax in vitreous humor ([9]; single eye drop, pigmented rabbits): 60 min; Tmax, conjunctiva [9, 14]: 4.98 min; Tmax, plasma [9, 14]: 4.98 min; Tmax, tear fluid [9, 14]: 4.98 min |
